Like-named read-outs stand apart in the source and are kept apart here.
Assays:
recombinant PIM-1 = recombinant PIM-1 (Homo sapiens, UniProt P11309); test: PIM-1 kinase assay; assay type: biochemical; conditions: for inhibition at 0.5 µM: 500 nM compound, read-out: PIM1: % inh 500 nM
Procedure: The following procedure was used to assay the PIM-1 kinase activity of compounds of the invention. Other methods for assaying PIM-1 and other PIM kinases, as well as methods to assay for activity against various kinases known in the art.
In a final reaction volume of 50 ul, recombinant PIM-1 (1 ng) was incubated with 12 mM MOPS pH 7.0, 0.4 mM EDTA, glycerol 1%, brij 35 0.002%, 2-mercaptoethanol 0.02%, BSA 0.2 mg/ml, 100 uM KKRNRTLTK, 10 mM MgAcetate, 15 uM ATP, [γ-^33P-ATP] (specific activity approx. 500 cpm/pmol), DMSO 4% and test inhibitor compound at the required concentration. The reaction was initiated by the addition of the Magnesium ATP mixture. After 40 min incubation at 23° C., the reactions were quenched by the addition of 100 ul 0.75% Phosphoric acid, and the labeled peptide collected by filtration through a phosphocellulose filter plate. The plate was washed 4 times with 0.075% phosphoric acid (100 ul per well) and then, after the addition of scintillation fluid (20 ul per well), the counts were measured by a scintillation counter.

recombinant human PIM2 = recombinant human PIM2 (Homo sapiens, UniProt Q9P1W9); test: PIM-2 kinase assay; assay type: biochemical
Chain of recombinant human PIM2 (Q9P1W9 whole entry): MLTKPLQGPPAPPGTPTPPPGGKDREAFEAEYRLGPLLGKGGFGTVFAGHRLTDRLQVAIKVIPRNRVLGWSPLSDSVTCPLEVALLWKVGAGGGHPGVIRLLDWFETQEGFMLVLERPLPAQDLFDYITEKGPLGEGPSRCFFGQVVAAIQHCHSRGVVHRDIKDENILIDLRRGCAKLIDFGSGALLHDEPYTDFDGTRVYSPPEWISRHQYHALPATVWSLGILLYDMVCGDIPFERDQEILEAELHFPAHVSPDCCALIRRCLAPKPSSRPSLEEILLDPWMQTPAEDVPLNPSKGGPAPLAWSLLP
Procedure: Test compounds dissolved and diluted in DMSO (2 μl) were added to a reaction mixture comprising 10 μl of 5× Reaction Buffer (40 mM MOPS pH 7.0, 5 mM EDTA), 10 μl of recombinant human PIM2 solution (4 ng PIM-2 dissolved in dilution buffer (20 mM MOPS pH 7.0; EDTA 1 mM; 5% Glycerol; 0.01% Brij 35; […]; […] 2-mercaptoethanol; 1 mg/ml BSA)) and 8 ul of water. Reactions were initiated by the addition of 10 ul of ATP Solution ([…] (15 mM MgCl2; 75 uM ATP) 1% ([γ-33P]ATP: Stock 1 mCi/100 μl; 3000 Ci/mmol (Perkin Elmer)) and 10 ul of substrate peptide solution (RSRSSYPAGT, dissolved in water at a concentration of 1 mM), Reactions were maintained for 10 min at 30° C. The reactions were quenched with 100 ul of 0.75% Phosphoric acid, then transferred to and filtered through a Phosphocellulose filter plate (Millipore, MSPH-N6B-50). After washing each well 4 times with 0.75% Phosphoric acid, scintillation fluid (20 uL) was added to each well and the residual radioactivity was measured using a Wallac luminescence counter.

recombinant human CK2 = target: T1, recombinant human CK2 (Homo sapiens, UniProt P68400); test: cell-free CK2 assay; assay type: biochemical
T1 construct: purchased Upstate
T1 sequence (P68400 whole entry): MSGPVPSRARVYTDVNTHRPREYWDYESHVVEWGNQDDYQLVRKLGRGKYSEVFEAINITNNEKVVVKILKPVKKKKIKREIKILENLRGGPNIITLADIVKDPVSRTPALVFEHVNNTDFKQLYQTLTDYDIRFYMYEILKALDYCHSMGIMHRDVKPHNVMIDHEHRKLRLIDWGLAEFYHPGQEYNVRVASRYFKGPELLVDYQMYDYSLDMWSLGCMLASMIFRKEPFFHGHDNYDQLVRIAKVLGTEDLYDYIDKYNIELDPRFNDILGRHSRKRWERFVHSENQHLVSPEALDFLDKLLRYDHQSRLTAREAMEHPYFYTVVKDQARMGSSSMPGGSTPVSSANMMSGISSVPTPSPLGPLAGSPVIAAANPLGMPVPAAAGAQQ
T1 sequence (P67870 whole entry partner): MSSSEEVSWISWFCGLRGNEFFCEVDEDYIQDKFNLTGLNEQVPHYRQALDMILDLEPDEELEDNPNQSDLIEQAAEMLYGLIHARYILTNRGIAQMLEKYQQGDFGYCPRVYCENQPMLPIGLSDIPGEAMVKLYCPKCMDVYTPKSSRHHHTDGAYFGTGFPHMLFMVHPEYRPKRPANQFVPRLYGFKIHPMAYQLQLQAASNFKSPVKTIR
Procedure: Modulatory activity of compounds described herein was assessed in vitro in cell-free CK2 assays by the following method.
Test compounds in aqueous solution were added at a volume of 10 microliters, to a reaction mixture comprising 10 microliters Assay Dilution Buffer (ADB; 20 mM MOPS, pH 7.2, 25 mM beta-glycerolphosphate, 5 mM EGTA, 1 mM sodium orthovanadate and 1 mM dithiothreitol), 10 microliters of substrate peptide (RRRDDDSDDD, dissolved in ADB at a concentration of 1 mM), 10 microliters of recombinant human CK2 (25 ng dissolved in ADB; Upstate). Reactions were initiated by the addition of 10 microliters of ATP Solution (90% 75 mM MgCl2, 75 micromolar ATP dissolved in ADB; 10% [γ-^33P]ATP (stock 1 mCi/100 μl; 3000 Ci/mmol (Perkin Elmer) and maintained for 10 minutes at 30 degrees C. The reactions were quenched with 100 microliters of 0.75% phosphoric acid, then transferred to and filtered through a phosphocellulose filter plate (Millipore). After washing each well 5 times with 0.75% phosphoric acid, the plate was dried under vacuum for 5 min and, following the addition of 15 ul of scintilation fluid to each well, the residual radioactivity was measured using a Wallac luminescence counter.

MV-4-11 = test: Alamar Blue cell proliferation assay, MV-4-11; assay type: cell-based; conditions: Homo sapiens, MV4-11; Table 4
Procedure: (§1) A representative cell-proliferation assay protocol using Alamar Blue dye (stored at 4° C., use 20 ul per well) is described hereafter.
(§2) a. Split and trypsinize cells.
(§3) b. Count cells using hemocytometer.
(§4) c. Plate 4,000-5,000 cells per well in 100 μl of medium and seed into a 96-well plate according to the following plate layout. Add cell culture medium only to wells B10 to B12. Wells B1 to B9 have cells but no compound added.
(§5) d. Add 100 μl of 2× drug dilution to each well in a concentration shown in the plate layout above. At the same time, add 100 μl of media into the control wells (wells B10 to B12). Total volume is 200 μl/well.
(§6) e. Incubate four (4) days at 37° C., 5% CO2 in a humidified incubator.
(§7) f. Add 20 μl Alamar Blue reagent to each well.
(§8) g. Incubate for four (4) hours at 37° C., 5% CO2 in a humidified incubator.
(§9) h. Record fluorescence at an excitation wavelength of 544 nm and emission wavelength of 590 nm using a microplate reader.
(§10) In the assays, cells are cultured with a test compound for approximately four days, the dye is then added to the cells and fluorescence of […] dye is detected after approximately four hours. Different types of cells can be utilized in the assays (e.g., HCT-116 human colorectal carcinoma cells, PC-3 human prostatic cancer cells, MDA-MB231 human breast cancer cells, K-562 human chronic myelogenous leukemia (CML) cells, MiaPaca human pancreatic carcinoma cells, MV-4 human acute myeloid leukemia cells, and BxPC3 human pancreatic adenocarcinoma cells).

[1] = tested on: K-562 human chronic myelogenous leukemia (CML) cells; test: Alamar Blue cell proliferation assay, K-562; assay type: cell-based; conditions: K562, Table 4
Procedure: as §1, §2, §3, §4, §5, §6, §7, §8, §9, §10

[2] = 15 μM ATP, read-out: PIM1: IC50 (15 μM ATP)

Chain of recombinant PIM-1 (P11309 whole entry): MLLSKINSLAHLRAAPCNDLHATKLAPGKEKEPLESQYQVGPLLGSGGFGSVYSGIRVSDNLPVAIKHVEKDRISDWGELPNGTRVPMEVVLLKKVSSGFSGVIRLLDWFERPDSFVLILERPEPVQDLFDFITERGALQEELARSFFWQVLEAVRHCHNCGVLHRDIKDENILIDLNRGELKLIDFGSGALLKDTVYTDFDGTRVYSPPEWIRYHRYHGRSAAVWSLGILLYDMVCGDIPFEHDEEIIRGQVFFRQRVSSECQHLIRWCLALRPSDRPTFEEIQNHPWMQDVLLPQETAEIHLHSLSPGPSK

Row | IC50 (recombinant human PIM2) | IC50 (recombinant human CK2) | inhibition at 0.5 µM (recombinant PIM-1) | SMILES | further results
1 | > 2500 nM | > 5 µM | – | CCOC(=O)c1cccc2c1nc(N(C(=O)OC(C)(C)C)c1ccccc1F)c1cccn12 | IC50 (recombinant PIM-1; Table 5, read-out: PIM1 IC50): > 2500 nM
2 | < 1000 nM | < 5 µM | – | c1cc(-c2nnc[nH]2)c2nc(NCC3CC3)c3cccn3c2c1 | IC50 (recombinant PIM-1; Table 5, read-out: PIM1 IC50): < 100 nM
3 | > 2500 nM | > 5 µM | – | CCOC(=O)c1cccc2c1[nH]c(=O)c1cccn12 | IC50 (recombinant PIM-1; Table 5, read-out: PIM1 IC50): > 2500 nM
4 | > 2500 nM | < 5 µM | – | O=c1[nH]c2c(-c3nnc[nH]3)cccc2n2cccc12 | IC50 (recombinant PIM-1; Table 5, read-out: PIM1 IC50): > 2500 nM
5 | – | – | -27.1% | CC(C)(C)OC(=O)N1CCN(C(=O)c2ccc3c(c2)[nH]c(=O)c2cccn23)CC1 | –
6 | – | – | 98.8% | O=C(O)c1ccc2c(c1)nc(NCCN1CCCCC1)c1cccn12 | IC50 (MV-4-11): > 10 µM; IC50 (recombinant PIM-1; [2]): 372 nM; IC50 [1]: > 10 µM
7 | < 1000 nM | < 1 µM | – | O=C(O)c1cccc2c1nc(Nc1ccccc1F)c1cccn12 | IC50 (recombinant PIM-1; Table 5, read-out: PIM1 IC50): < 1000 nM
8 | – | – | 10.9% | COc1ccc(OC)c(Nc2nc3cc(-c4nnn[nH]4)ccc3n3cccc23)c1 | –
9 | > 2500 nM | < 5 µM | – | CCOC(=O)c1cccc2c1[nH]c(=O)c1cncn12 | –
10 | – | – | 46% | O=C(O)c1ccc2c(c1)nc(NCCC(F)(F)F)c1cccn12 | –
11 | > 2500 nM | > 5 µM | – | CCOC(=O)c1cccc2c1[nH]c(=O)c1nccn12 | –
12 | – | – | 69.5% | CN1CCCC(Nc2nc3cc(C(=O)O)ccc3n3cccc23)C1 (stereo not shown) | IC50 (MV-4-11): > 10 µM; IC50 (recombinant PIM-1; [2]): 330 nM; IC50 [1]: > 10 µM
13 | – | – | 15% | COc1cccc(Nc2nc3cc(-c4nnn[nH]4)ccc3n3cccc23)c1 | –
14 | – | – | 25.6% | O=C(O)c1ccc2c(c1)[nH]c(=O)c1cccn12 | –
15 | – | – | 89.7% | CCN1CCCC1CNc1nc2cc(C(=O)O)ccc2n2cccc12 (stereo not shown) | IC50 (MV-4-11): > 10 µM; IC50 (recombinant PIM-1; [2]): 200 nM; IC50 [1]: > 10 µM
16 | – | – | 72.5% | O=C(O)c1ccc2c(c1)nc(NCCN1CCCC1)c1cccn12 | IC50 (MV-4-11): > 10 µM; IC50 (recombinant PIM-1; [2]): 504 nM; IC50 [1]: > 10 µM
17 | – | – | 73.2% | Fc1ccc(Nc2nc3cc(-c4nnn[nH]4)ccc3n3cccc23)cc1 | IC50 (MV-4-11): > 10 µM; IC50 (recombinant PIM-1; [2]): 365 nM; IC50 [1]: > 10 µM
18 | – | – | -46.9% | CC(C)(C)OC(=O)N1CCCN(C(=O)c2ccc3c(c2)[nH]c(=O)c2cccn23)CC1 | –
19 | < 100 nM | < 0.1 µM | – | NC(=O)c1cccc2c1nc(Nc1ccccc1F)c1cncn12 | –
20 | – | – | 67.9% | OCCNc1nc2cc(-c3nnn[nH]3)ccc2n2cccc12 | IC50 (MV-4-11): > 10 µM; IC50 (recombinant PIM-1; [2]): 273 nM; IC50 [1]: > 10 µM
21 | – | – | 63.5% | CN(C)CCNc1nc2cc(-c3nnn[nH]3)ccc2n2cccc12 | IC50 (MV-4-11): > 10 µM; IC50 (recombinant PIM-1; [2]): 486 nM; IC50 [1]: > 10 µM
22 | – | – | -35% | N#Cc1ccc2c(c1)nc(NCc1ccccc1)c1cccn12 | –
23 | – | – | -24.5% | c1ccc(Nc2nc3cc(-c4nnc[nH]4)ccc3n3cccc23)cc1 | –
24 | – | – | -11.8% | O=C(c1ccc2c(c1)[nH]c(=O)c1cccn12)N1CCNCC1 | –
25 | > 2500 nM | < 1 µM | – | O=C(O)c1cccc2c1nc(Nc1ccccc1F)c1cncn12 | –
26 | – | – | -13.9% | CN(C)CCNC(=O)c1ccc2c(c1)[nH]c(=O)c1cccn12 | –
